# Laboratory results published in US9580513B2, “VHZ for diagnosis and treatment of cancers” (AGENCY FOR SCIENCE, TECHNOLOGY AND RESEARCH (A*STAR), priority 2008, dated 2017).
# T1: VHZ-GST (Homo sapiens, UniProt Q9BVJ7)
# T1 construct: made in house
# T1 sequence (Q9BVJ7 1-150): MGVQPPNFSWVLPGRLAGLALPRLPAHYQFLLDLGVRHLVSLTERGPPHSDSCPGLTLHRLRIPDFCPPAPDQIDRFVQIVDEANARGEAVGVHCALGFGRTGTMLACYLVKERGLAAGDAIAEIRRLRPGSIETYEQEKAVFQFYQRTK
# B1: VHZ human/mouse Chimeric mAb (Clone #209): mouse variable regions of hybridoma clone #209 (SEQ ID NO: 4 and 5) joined with human IgG1 constant region (antibody, listed as Mus musculus, V domains shown)
# VH: LVDMDSRLNLVFLVLILKGVQCDVQLVESGGGLVQPGGSRKLSCAASGFTFSSFGMHWVRQAPEKGLEWVAYISSGSSTIYYADTVKGRFTISRDNPKNTLFLQMTSLRSEDTAMYYCARWQTARATRGYAMDYWGQGTSVTVSS
# VL: VMTQSHKFMSTSVGDRVSITCKASQDVNTAVAWYQQKPGQSPKLLIYSASYRFTGVPDLFTGSGSGTDFTFTINSVQAEDLAVYYCQQHYSSPWTFGGGTKLEIKRADAAPTVSIFHHPVSLG
# modifications: human IgG1 constant regions lacking entries
# Columns and labels:
# [1] = molecular target: T1, VHZ-GST; assay: Tyrosine phosphatase assay (ENZCHEK kit, fluorogenic substrate); assay type: biochemical; conditions: 10 μM sodium orthovanadate added to the reaction; 0.675 picomoles VHZ-GST
# Description: FIG. 3A. We test each protein (0.675 picomoles) for its PTPase activity.
# The ENZCHEK™ kit (Invitrogen, R22065) is used. As per the manufacturer's protocol, the fluorogenic substrate is reconstituted in the assay wells with buffer; the desired potential PTPases (0.675 picomole for each protein: VHZ-GST, VHZ-GST+Phosphatase inhibitor, VHZ(C95S)-GST, and control GST) are added to the wells and incubated 30 min or 90 min respectively. The fluorescence is then quantified using a Gemini XPS microplate spectrofluorometer (Molecular Devices). Fluorescence is measured at 10 minute intervals at the excitation and emission wavelengths of 358 and 452 nm, respectively. The phosphatase inhibitor sodium orthovanadate (10 μM) is used in the assay as a negative control.
# The PTPase activities of VHZ-GST, indicated by increasing blue fluorescence (excitation/emission maxima ˜358/452 nm), are abolished either by mutation of Cys 95 to Ser or by adding phosphatase inhibitor (sodium orthovanadate) into the assay (FIG. 3A, Panel A).
# [2] = test system: HCT116 colon cancer cells that express VHZ; assay: Formation of tumours by HCT116 colon cancer cells injected via the tail vein of nude mice; assay type: in vivo; conditions: 1×10^6 HCT116 cells via tail vein on day 1; chimeric mAb into tail vein from day 3, then two administrations weekly; compared with PBS (untreated)
# From the text: FIG. 15B. Either PBS (untreated) or chimeric mAb (treated) is administrated into tail vein starting the first treatment on day 3; followed by two administrations weekly. Experiment periods: Top two animals starting 11 Feb.-2 Apr. 2009 bottom two animals starting 11 Feb.-13 Apr. 2009.
# All animal studies have been approved by the Institutional Review Board of the IMCB. We follow strictly rules and policies of the Animal Facility Center of The Agency for Science, Technology and Research (A* STAR), Singapore. Nine-week old nude mice (Jackson Labs, USA) are used.
# By western blot we confirm that HCT116 colon cancer cell line is VHZ positive comparing with MDCK cell line. 1×10^6 HCT116 cancer cells were injected into the circulation of nude mice via the tail vein on day 1.
# Either PBS (untreated) or chimeric mAb (treated) was administrated into tail vein starting the first treatment on day 3; followed by two administrations weekly. Experiment periods: Top two animals starting 11 Feb.-2 Apr. 2009 bottom two animals starting 11 Feb.-13 Apr. 2009.
Molecule,PTPase activity of VHZ [1],formation of tumours by HCT116 colon cancer cells [2]
[Na+].[Na+].[Na+].[O]=[V]([O-])([O-])[O-] [sodium orthovanadate],completely abolished,
B1,,effectively inhibits the formation of tumours
